Patent US10059694B2, “2-aminopyrimidine compound and pharmaceutical composition and use thereof” (Shanghai Institute of Materia Medica, Chinese Academy of …, priority 2014, dated 2018)
Like-named read-outs stand apart in the source and are kept apart here.

Experiments:
IGF-1R = biological target: T1, IGF-1R (Homo sapiens, UniProt P08069); assay: kinase inhibitory activity test (ELISA), IGF-1R; assay type: biochemical; conditions: ATP 5 μM, 1 hour at 37° C.
T1 construct: purchased Millipore
Experimental: (§1) The enzyme substrate poly (glutamic acid, tyrosine)4:1 (Sigma) was diluted with potassium-free PBS (10 mM sodium phosphate buffer, 150 mM NaCl, pH 7.2-7.4) to 20 μg/mL, plate coated with 125 μL/well, reacted for 12-16 hours at 37° C. After the liquid in the wells was discarded, the plates were washed three times with 200 μL/well of T-PBS (PBS containing 0.1% Tween-20), and each time for 5 minutes, and then dried for 1-2 hours in an oven at 37° C. 50 μL of ATP solution diluted with reaction buffer (50 mM HEPES pH 7.4, 50 mM MgCl2, 5 mM MnCl2, 0.2 mM Na3VO4, 1 mM DTT) was added into each well and the final concentration was 5 μM. The compounds were diluted with 1% DMSO to suitable concentrations and were added at 10 μL/well. Then different types of tyrosine kinase proteins (including EGFR^wt, EGFR^T790M/L858R and IGF-1R, purchased from Millipore) diluted with 40 μL of reaction buffer were added. The above reaction system was reacted for 1 hour at 37° C. shaking table (100 rpm). Control wells with no enzyme and control wells with DMSO solvent were set in each experiment. After the reaction was completed, the plates were washed three times with T-PBS. The anti-phosphotyrosine primary antibody PY99 (Santa Cruz) was added at 100 μL/well and the antibody was diluted with T-PBS containing BSA 5 mg/mL by 1:1000. The mixture was reacted for 0.5 h at 37° C. shaking table, the plates were washed three times with T-PBS. The secondary antibody which was horseradish peroxidase-labeled goat anti-mouse IgG was added at 100 μL/well (the antibody was diluted with T-PBS containing BSA 5 mg/mL by 1:2000). The mixture was reacted for 0.5 h at 37° C. shaking table, the plates were washed three times with T-PBS. 2 l/mL of OPD coloring solution was added at 100 μL/well (diluted with 0.1 M citric acid-sodium citrate buffer (pH=5.4) containing 0.03% H2O2) and dark reacted for 1 to 10 minutes at 25° C. 2 M H2SO4 was added at 50 μL/well to terminate the reaction. Reading was carried out with an adjustable wavelength microplate enzyme-labeled instrument SPECTRA MAX 190 at 490 nm wavelength.
(§2) The IC50 value was calculated by the four-parameter fitting of the suppression curve.

[1] = system: human epidermal carcinoma A431 cell line; assay: SRB proliferation assay, A431 cells; assay type: cell-based; conditions: read-out: IC50 A431
Experimental: (§3) Cell lines: human epidermal carcinoma A431 cell line and human non-small cell lung cancer NCI-H1975 cell line was purchased from the American Standard Biology Collection Center (ATCC).
(§4) Methods: sulforhodamine B (SRB) method, which was as follows: certain number of different tumor cells in logarithmic growth phase were inoculated on 96-well culture plates. After cultured for 24 h to cell adherence, different concentrations of the test compounds of the invention were added. Each concentration was provided with three wells, and a corresponding concentration of DMSO solvent control and a cell-free zeroing well were set. After the cells were treated with the medicine for 72 h, the culture medium was discarded and 100 μL of 10% pre-cooled trichloroacetic acid solution was added to fix the cells. After placed for 1 h at 4° C., it was washed for 5 times with distilled water and dried naturally. Then 100 μL SRB (4 mg/mL) (Sigma) solution was added and stained for 15 min at room temperature. The staining solution was discarded and washed for 5 times with 1% glacial acetic acid and dried. Finally, 150 μL of 10 mM Tris solution (pH 10.5) was added and the OD value was measured at 515 nm with adjustable wavelength microplate enzyme-labeled instrument (VERSAmax™, Molecular Device Corporation, Sunnyvale, Calif., USA).

EGFR^wt = biological target: T2, EGFR^wt (Homo sapiens, UniProt P00533); assay: kinase inhibitory activity test (ELISA), EGFR^WT; assay type: biochemical; conditions: ATP 5 μM, 1 hour at 37° C.
T2 construct: purchased Millipore
T2 sequence (P00533 25-1210): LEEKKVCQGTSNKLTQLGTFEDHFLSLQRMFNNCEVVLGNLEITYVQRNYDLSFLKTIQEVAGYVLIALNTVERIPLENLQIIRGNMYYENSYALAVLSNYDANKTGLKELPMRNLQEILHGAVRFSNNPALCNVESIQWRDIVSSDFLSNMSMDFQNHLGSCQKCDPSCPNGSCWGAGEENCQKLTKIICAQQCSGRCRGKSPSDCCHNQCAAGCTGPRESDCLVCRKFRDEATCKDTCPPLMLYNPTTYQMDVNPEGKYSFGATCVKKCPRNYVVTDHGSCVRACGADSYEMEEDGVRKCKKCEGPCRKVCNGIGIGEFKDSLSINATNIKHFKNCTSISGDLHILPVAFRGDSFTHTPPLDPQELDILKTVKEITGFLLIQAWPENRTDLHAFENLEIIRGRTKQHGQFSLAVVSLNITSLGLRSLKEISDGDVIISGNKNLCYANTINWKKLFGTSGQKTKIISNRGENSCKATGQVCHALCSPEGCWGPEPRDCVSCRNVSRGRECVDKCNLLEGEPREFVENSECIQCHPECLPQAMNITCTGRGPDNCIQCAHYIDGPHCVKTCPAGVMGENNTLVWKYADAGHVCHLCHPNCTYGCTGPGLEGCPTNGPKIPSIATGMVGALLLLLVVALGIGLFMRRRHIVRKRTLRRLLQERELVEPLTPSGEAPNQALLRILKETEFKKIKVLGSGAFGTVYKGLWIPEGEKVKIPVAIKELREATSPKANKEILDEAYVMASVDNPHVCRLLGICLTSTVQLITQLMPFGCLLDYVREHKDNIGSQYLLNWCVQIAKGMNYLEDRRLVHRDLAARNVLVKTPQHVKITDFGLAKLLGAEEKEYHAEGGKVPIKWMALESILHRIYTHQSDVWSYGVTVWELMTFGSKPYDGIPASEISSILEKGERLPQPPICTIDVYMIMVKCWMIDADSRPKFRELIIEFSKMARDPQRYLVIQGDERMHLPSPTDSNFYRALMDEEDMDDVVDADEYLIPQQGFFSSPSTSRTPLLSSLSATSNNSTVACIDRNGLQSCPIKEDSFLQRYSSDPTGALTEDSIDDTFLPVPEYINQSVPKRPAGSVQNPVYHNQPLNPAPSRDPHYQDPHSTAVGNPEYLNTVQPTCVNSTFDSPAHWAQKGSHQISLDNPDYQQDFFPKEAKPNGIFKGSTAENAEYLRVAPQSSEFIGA
Experimental: as §1, with “Then different types of tyrosine kinase proteins (including EGFR^wt, EGFR^T790M/L858R and IGF-1R, purchased from Millipore) diluted with 40 μL of reaction buffer were added.” left out
as §2

[2] = system: human non-small cell lung cancer NCI-H1975 cell line; assay: SRB proliferation assay, NCI-H1975 cells; assay type: cell-based; conditions: read-out: IC50 NCI-H1975
Experimental: as §3
as §4, with “USA). […] Based on the inhibitory effect of the 2-aminopyrimidine compounds on the growth of these cells, the half maximal inhibitory concentration (IC50) values were calculated, as shown in Table 2.” for “USA).”

EGFR^T790M/L858R = biological target: T3, EGFR^T790M/L858R (Homo sapiens, UniProt P00533, L858R/T790M); assay: kinase inhibitory activity test (ELISA), EGFR^T790M/L858R; assay type: biochemical; conditions: for IC50: ELISA, ATP 5 μM, 1 hour at 37° C.; for kinase inhibitory activity (in words): summary of Table 1
T3 construct: purchased Millipore
T3 sequence (P00533 25-1210 T790M/L858R): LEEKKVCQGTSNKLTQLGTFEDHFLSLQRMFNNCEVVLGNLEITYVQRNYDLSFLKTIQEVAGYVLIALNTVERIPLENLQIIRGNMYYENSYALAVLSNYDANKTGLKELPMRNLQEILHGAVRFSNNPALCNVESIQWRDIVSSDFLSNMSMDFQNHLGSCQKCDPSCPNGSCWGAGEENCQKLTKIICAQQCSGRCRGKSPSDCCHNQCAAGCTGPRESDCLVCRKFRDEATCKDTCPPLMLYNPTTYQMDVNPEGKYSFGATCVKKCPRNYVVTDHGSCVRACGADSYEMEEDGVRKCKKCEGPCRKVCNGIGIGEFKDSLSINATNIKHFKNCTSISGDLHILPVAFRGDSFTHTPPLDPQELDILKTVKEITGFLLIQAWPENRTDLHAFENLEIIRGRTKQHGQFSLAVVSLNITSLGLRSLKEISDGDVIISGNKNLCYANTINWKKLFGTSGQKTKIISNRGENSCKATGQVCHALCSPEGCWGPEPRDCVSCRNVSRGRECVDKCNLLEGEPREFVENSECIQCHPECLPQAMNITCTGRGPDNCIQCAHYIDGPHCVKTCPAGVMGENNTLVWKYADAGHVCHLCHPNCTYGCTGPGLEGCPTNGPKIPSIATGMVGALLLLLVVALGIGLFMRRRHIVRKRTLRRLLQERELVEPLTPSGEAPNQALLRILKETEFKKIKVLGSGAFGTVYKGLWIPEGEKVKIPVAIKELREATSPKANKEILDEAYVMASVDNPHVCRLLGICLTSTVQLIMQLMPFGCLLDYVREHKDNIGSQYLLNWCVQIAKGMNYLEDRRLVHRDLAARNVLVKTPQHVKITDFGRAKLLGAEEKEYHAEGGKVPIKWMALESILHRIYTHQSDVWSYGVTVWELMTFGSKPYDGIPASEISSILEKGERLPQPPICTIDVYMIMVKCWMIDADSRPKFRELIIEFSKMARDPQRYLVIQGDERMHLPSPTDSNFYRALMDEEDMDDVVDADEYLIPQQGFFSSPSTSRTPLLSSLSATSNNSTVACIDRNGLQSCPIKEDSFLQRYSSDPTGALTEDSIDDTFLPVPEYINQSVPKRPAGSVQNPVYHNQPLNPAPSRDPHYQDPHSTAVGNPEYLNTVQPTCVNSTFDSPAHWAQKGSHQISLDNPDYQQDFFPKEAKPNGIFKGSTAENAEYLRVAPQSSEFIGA
Experimental: as §1, with “Then different types of tyrosine kinase proteins (including EGFR^wt, EGFR^T790M/L858R and IGF-1R, purchased from Millipore) diluted with 40 μL of reaction buffer were added.” left out
as §2

T1 sequence (P08069 31-1367): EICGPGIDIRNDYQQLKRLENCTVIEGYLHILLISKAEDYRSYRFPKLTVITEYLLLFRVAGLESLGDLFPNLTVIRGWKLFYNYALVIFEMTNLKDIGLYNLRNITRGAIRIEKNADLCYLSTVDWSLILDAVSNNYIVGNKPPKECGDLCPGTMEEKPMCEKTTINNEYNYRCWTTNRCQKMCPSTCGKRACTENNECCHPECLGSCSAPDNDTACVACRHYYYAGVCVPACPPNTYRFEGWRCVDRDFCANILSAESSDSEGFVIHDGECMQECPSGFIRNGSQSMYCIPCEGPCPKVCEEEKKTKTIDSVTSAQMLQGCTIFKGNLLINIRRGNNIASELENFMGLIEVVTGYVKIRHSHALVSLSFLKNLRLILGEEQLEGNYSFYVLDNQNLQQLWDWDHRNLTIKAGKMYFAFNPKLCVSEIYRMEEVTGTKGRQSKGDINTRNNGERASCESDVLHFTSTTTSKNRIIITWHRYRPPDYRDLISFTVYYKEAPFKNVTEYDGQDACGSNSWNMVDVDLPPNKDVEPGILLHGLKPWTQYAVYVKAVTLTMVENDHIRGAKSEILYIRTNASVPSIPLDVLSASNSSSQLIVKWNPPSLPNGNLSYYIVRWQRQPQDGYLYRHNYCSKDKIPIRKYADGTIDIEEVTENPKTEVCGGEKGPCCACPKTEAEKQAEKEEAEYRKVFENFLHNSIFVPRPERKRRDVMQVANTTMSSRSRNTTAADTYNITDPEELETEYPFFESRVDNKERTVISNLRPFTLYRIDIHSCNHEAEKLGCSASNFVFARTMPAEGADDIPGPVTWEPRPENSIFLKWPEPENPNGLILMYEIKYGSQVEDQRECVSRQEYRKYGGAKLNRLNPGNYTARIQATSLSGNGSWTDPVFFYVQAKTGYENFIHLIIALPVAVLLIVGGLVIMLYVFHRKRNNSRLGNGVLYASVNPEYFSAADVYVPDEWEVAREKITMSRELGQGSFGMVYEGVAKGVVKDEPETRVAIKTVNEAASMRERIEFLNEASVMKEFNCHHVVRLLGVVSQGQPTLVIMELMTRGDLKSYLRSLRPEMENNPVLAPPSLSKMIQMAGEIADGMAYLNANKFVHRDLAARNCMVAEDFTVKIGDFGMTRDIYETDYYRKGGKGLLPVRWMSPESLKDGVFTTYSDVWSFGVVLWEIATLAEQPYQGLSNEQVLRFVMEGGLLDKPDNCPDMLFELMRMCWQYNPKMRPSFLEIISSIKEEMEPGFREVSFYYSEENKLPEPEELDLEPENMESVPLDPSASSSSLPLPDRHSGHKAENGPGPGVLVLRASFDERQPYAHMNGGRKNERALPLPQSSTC

Row | Compound | IC50 (IGF-1R) [nM] | IC50 (EGFR^wt) [nM] | IC50 (EGFR^T790M/L858R) [nM] | IC50 ([1]; A-431, SRB, 72 h) [nM] | IC50 ([2]; NCI-H1975, SRB, 72 h) [nM] | kinase inhibitory activity (in words) (EGFR^T790M/L858R) | IC50 ([1]; A-431, 72 h) [nM] | IC50 ([2]; NCI-H1975, 72 h) [nM]
1 | C=CC(=O)Nc1cc(Nc2nccc(-c3cn(C)c4ccccc34)n2)c(OC)cc1N(C)CCN(C)C [AZD9291, reference compound] | > 1000 |  |  |  |  |  |  | 
2 | COc1ccc(NC(=O)/C=C/CN(C)C)cc1Nc1ncc(Cl)c(Nc2ccc3ccccc3c2)n1 [CCB118563, (E)-N-((3-((5-chloro-4-((naphthalen-2-yl)amino))pyrimidin-2-yl)amino)-4-methoxyphenyl)-4-(dimethylamino)-2-butenamide] | 14.7 | 260 | 18.2 |  |  |  | 1130 | 306
3 | COc1ccc(NC(=O)/C=C/CN2CCCCC2)cc1Nc1ncc(Cl)c(Nc2ccc3ccccc3c2)n1 [CCB120024, (E)-N-((3-((5-chloro-4-((naphthalen-2-yl)amino))pyrimidin-2-yl)amino)-4-methoxyphenyl)-4-(piperidin-1-yl)-2-butenamide] | 35.4 | 318 | 1.9 | 6930 | 319 | potent |  | 
4 | COc1ccc(NC(=O)/C=C/CN2CCN(C(C)=O)CC2)cc1Nc1ncc(Cl)c(Nc2ccc3ccccc3c2)n1 [CCB120029, (E)-N-((3-((5-chloro-4-((naphthalen-2-yl)amino))pyrimidin-2-yl)amino)-4-methoxyphenyl)-4-(4-acetylpiperazin-1-yl)-2-butenamide] | 99.4 | 695 | 19.1 |  | 1050 |  |  | 
5 | C=CC(=O)Nc1cc(CN(C)CCN(C)C)cc(Nc2ncc(Cl)c(Nc3ccc4ccccc4c3)n2)c1 [CCB120069, N-((3-((5-chloro-4-((naphthalen-2-yl)amino))pyrimidin-2-yl)amino)-5-((N-methyl-N-dimethylaminoethyl)methylamine)phenyl)acrylamide] | 9 | 132 | 3.9 | 535 | 147 | potent |  | 
6 | C=CC(=O)Nc1cc(CN(C)C)cc(Nc2ncc(Cl)c(Nc3ccc4ccccc4c3)n2)c1 [CCB120081, N-((3-((5-chloro-4-((naphthalen-2-yl)amino))pyrimidin-2-yl)amino)-5-(dimethylaminomethyl)phenyl)acrylamide] | 85.8 | 170 | 5.1 | 37 | 16 |  |  | 
7 | C=CC(=O)Nc1cc(Nc2ncc(Cl)c(Nc3ccc4ccccc4c3)n2)c(OC)cc1N(C)CCNC [CCB4580030, N-((5-((5-chloro-4-(naphthalene-2-ylamino)pyrimidine-2-yl)amino)-4-methoxy-2-(methyl(2-methylamino)ethyl)amino)phenyl)acrylamide] | 7.8 | 3.1 | 2.2 |  |  |  |  | 
8 | C=CC(=O)Nc1cccc(Nc2nc(Nc3ccc(N4CCN(C(C)=O)CC4)cc3OC)ncc2C(F)(F)F)c1 [CO1686, reference compound] | 1320 |  |  | 972 | 215 |  |  | 

The remaining compounds from weak to strong by IC50 (IGF-1R), led by results:

Row | IC50 (IGF-1R) [nM] | IC50 (EGFR^wt) [nM] | IC50 (EGFR^T790M/L858R) [nM] | IC50 ([1]; A-431, SRB, 72 h) [nM] | IC50 ([2]; NCI-H1975, SRB, 72 h) [nM] | kinase inhibitory activity (in words) (EGFR^T790M/L858R) | Compound | IC50 ([1]; A-431, 72 h) [nM] | IC50 ([2]; NCI-H1975, 72 h) [nM]
9 | 263 | 172 | 2.2 | > 10000 | 403 | potent | C=CC(=O)Nc1ccc(OC)c(Nc2ncc(Cl)c(Nc3ccc4ccccc4c3)n2)c1 [CCB120027, N-((3-((5-chloro-4-((naphthalen-2-yl)amino))pyrimidin-2-yl)amino)-4-methoxyphenyl)acrylamide] |  | 
10 | 138 | > 1000 | 4.1 | 2000 | 311 |  | C=CC(=O)Nc1cc(CN2CCOCC2)cc(Nc2ncc(Cl)c(Nc3ccc4ccccc4c3)n2)c1 [CCB120106] |  | 
11 | 132 | 567 | 11.9 |  | 895 |  | COc1ccc(NC(=O)/C=C/CN2CCOCC2)cc1Nc1ncc(Cl)c(Nc2ccc3ccccc3c2)n1 [CCB120025, (E)-N-((3-((5-chloro-4-((naphthalen-2-yl)amino))pyrimidin-2-yl)amino)-4-methoxyphenyl)-4-(morpholin-1-yl)-2-butenamide] |  | 
12 | 77.3 | 137 | 1.2 | 576 | 151 |  | C=CC(=O)Nc1cc(CN2CCCN(C)CC2)cc(Nc2ncc(Cl)c(Nc3ccc4ccccc4c3)n2)c1 [CCB120105, N-((3-((5-chloro-4-((naphthalen-2-yl)amino))pyrimidin-2-yl)amino)-5-((4-methylhomopiperazin-1-yl)methyl)phenyl)acrylamide] |  | 
13 | 73.3 | 102 | 3.1 | 1020 | 131 |  | C=CC(=O)Nc1cc(CN2CCN(C)CC2)cc(Nc2ncc(Cl)c(Nc3ccc4ccccc4c3)n2)c1 [CCB120103, N-((3-((5-chloro-4-((naphthalene-2-yl)amino))pyrimidine-2-yl)amino)-5-((4-methylpiperazine-1-yl)methyl)phenyl)acrylamide] |  | 
